Molecules are shown by their SMILES.

The subject of the first data set is phosphorylation of MAP kinase (ERK) in murine colon 26 (C26) carcinoma cells. Put plainly: Cellular assay for measuring MEK inhibition: inhibition of ERK phosphorylation, C26CPA1. The format is cell-based. The settings on record: Mus musculus, 1 h, C26 cells treated one hour with test compound. How it is done:
(§1) Cellular Assay for Measuring MEK Inhibition
(§2) MEK inhibitors were evaluated by determining their ability to inhibit phosphorylation of MAP kinase (ERK) in murine colon 26 (C26) carcinoma cells. Since ERK1 and ERK2 represent the only known substrates for MEK1 and MEK2, the measurement of inhibition of ERK phosphorylation in cells provides direct read out of cellular MEK inhibition by the compounds of the invention. Detection of phosphorylation of ERK was carried out either by Western blot or ELISA format. Briefly, the assays involve treatment of exponentially growing C26 cells with varying concentrations of the test compound (or vehicle control) for one hour at 35° C. For Western blot assay, cells were rinsed free of compound/vehicle and lysed in a solution containing 50 mM NaCl, 50 mM glycerol phosphate, 10 mM HEPES, pH […], 1% Triton X-100, 1 mM Na3VO4, 100 μM PMSF, 10 μM leupeptin and 10 μM pepstatin. Supernatants were then subjected to gel electrophoresis and hybridized to a primary antibody recognizing dually phosphorylated ERK1 and ERK2. To evaluate total MAPK levels, blots were subsequently ‘stripped’ and re-probed with a 1:1 mixture of polyclonal antibodies recognizing unphosphorylated ERK1 and ERK2. For pERK ELISA assay, pERK TiterZyme Enzyme immunometric Assay kits were acquired from Assay Designs, Inc (Ann Arbor, Mich.). Briefly, cells were harvested in lysis solution containing 50 mM β-glycerophosphate, 10 mM HEPES, pH5.4, 50 mM NaCl, 2mM EDTA and 1% SDS and protein lysates were diluted 1:15 with supplied Assay buffer prior to the execution of the assay. The subsequent steps were carried out essentially as recommended by the manufacturer.
(§3) The inhibition data generated by the above protocol is disclosed in Table I. If several concentrations of inhibitor were tested, IC50 values (the concentration which gives 50% inhiition) were determined graphically from the dose response curve for % inhibition. Otherwise, percent inhibitions at measured concentrations are reported.
(§4) Table I. Cellular Inhibition of ERK Phosphorylation by Compounds of the Invention
For orientation: IC50 means the concentration at which inhibition is half-maximal. Higher therefore signals weaker potency in that assay. In turn, `Cn1cnc2c(F)c(Nc3ccc(I)cc3F)c(C(=O)NOCCO)cc21` [Compound 32] came in with an IC50 of 1.9 nM.

As for `Cn1cnc2c(F)c(Nc3ccc(I)cc3F)c(-c3nnc(NCCO)o3)cc21` [Compound 6], inhibition was half-maximal at 569 nM (IC50).

Molecule `Cc1cc(I)ccc1Nc1c(C(=O)NOCC2CC2)cc2c(ncn2CC(O)CO)c1F` (stereo not shown) [Compound 35] came in with an IC50 of 8.85 nM.

As to `Cn1cnc2c(F)c(Nc3ccc(I)cc3F)c(C(=O)NCCCN)cc21` [Compound 31], the IC50 stood at 1000 nM.

With `COC(=O)Cn1cnc2c(F)c(Nc3ccc(I)cc3C)c(C(=O)NOCC3CC3)cc21` [Compound 12], half-maximal inhibition (IC50) was put at 22 nM.

The molecule `CCCn1cnc2c(F)c(Nc3ccc(I)cc3C)c(C(=O)NOCC3CC3)cc21` [Compound 14] displayed a 50% inhibitory concentration (IC50) of 28 nM.

As to `Cn1cnc2c(F)c(Nc3ccc(I)cc3F)c(C(=O)NCCCO)cc21` [Compound 26], the 50% inhibitory concentration (IC50) worked out at 150 nM.

`Cn1cnc2c(F)c(Nc3ccc(I)cc3F)c(C(=O)NCC(O)CO)cc21` (stereo not shown) [Compound 24] registered an IC50 of 556 nM.

Turning to `Cc1cc(I)ccc1Nc1c(C(=O)NOCC(O)CO)cc2c(ncn2C)c1F` (stereo not shown) [Compound 15], the IC50 turned out to be 86 nM.

With `Cn1cnc2c(F)c(Nc3ccc(I)cc3F)c(C(=O)NO)cc21` [Compound 30], the IC50 turned out to be 0.4 nM.

Take `Cn1cnc2c(F)c(Nc3ccc(I)cc3F)c(C(=O)NOC[C@H](O)CO)cc21` [Compound 34]: the 50% inhibitory concentration (IC50) was 22 nM.

Turning to `Cc1cc(I)ccc1Nc1c(C(=O)NOCCO)cc2c(ncn2C)c1F` [Compound 13], the IC50 amounted to 3.4 nM.

For `Cn1cnc2c(F)c(Nc3ccc(I)cc3F)c(CO)cc21` [Compound 40], 80 nM corresponded to half-maximal inhibition (IC50).

In turn, `CCc1ccc(Nc2c(C(=O)OC)cc3c(ncn3C)c2F)c(F)c1` [Compound 38] registered an IC50 of 230 nM.

As for `Cc1cc(I)ccc1Nc1c(-c2nnc(N)o2)cc2c(ncn2C)c1F` [Compound 21], the IC50 is 268 nM.

Consider `Cn1cnc2c(F)c(Nc3ccc(I)cc3F)c(C(=O)NCCO)cc21` [Compound 25], for which the IC50 was determined as 122 nM.

`Cc1cc(I)ccc1Nc1c(C(N)=O)cc2c(ncn2C)c1F` [Compound 22] registered an IC50 of 41 nM.

Turning to `CNCCONC(=O)c1cc2c(ncn2C)c(F)c1Nc1ccc(I)cc1C` [Compound 20], it took 190 nM to reach half-maximal inhibition (IC50).

On to `Cc1cc(I)ccc1Nc1c(C(=O)NOCC2CC2)cc2c(ncn2C)c1F` [Compound 9], for which 12 nM corresponded to half-maximal inhibition (IC50).

Molecule `COC(=O)c1cc2c(ncn2C)c(F)c1Nc1ccc(I)cc1C` [Compound 11] gave an IC50 of 1000 nM.

`Cc1cc(I)ccc1Nc1c(CO)cc2c(ncn2C)c1F` [Compound 28] yielded an IC50 of 566 nM.

`Cc1cc(I)ccc1Nc1c(C(=O)NOCC2CC2)cc2c(ncn2CCCO)c1F` [Compound 16] yielded a half-maximal inhibitory concentration (IC50) of 110 nM.

`Cn1cnc2c(F)c(Nc3ccc(I)cc3F)c(C(N)=O)cc21` [Compound 23] yielded a half-inhibitory concentration (IC50) of 2 nM.

A further data set shares this test system. Put plainly: Cellular assay for measuring MEK inhibition: inhibition of ERK phosphorylation, C26ELSA (pERK ELISA). The settings on record: Mus musculus, 1 h, C26 cells treated one hour with test compound. Format: cell-based. On the procedure:
as §1, §2, §3, §4
In general terms: An ELISA detects its analyte on a solid surface through an enzyme-linked reagent.
The molecule `Cn1cnc2c(F)c(Nc3ccc(I)cc3F)c(C(=O)NCCCO)cc21` [Compound 1] came in with an IC50 of 550 nM.

Consider `CCc1ccc(Nc2c(C(N)=O)cc3c(ncn3C)c2F)c(F)c1` [Compound 42], for which the half-maximal inhibitory concentration (IC50) worked out at 280 nM.

`Cn1cnc2c(F)c(Nc3ccc(I)cc3F)c(C(N)=O)cc21` [Compound 23]: the midpoint of inhibition, the IC50, lay at 8.42 nM.

System in a further data set: not given
Experiment: not given
Settings: not given
The term melting point denotes the temperature, or range, at which the solid turns liquid. For `Cc1cc(I)ccc1Nc1c(-c2nnc(N)o2)cc2c(ncn2C)c1F` [Example 4, [6-(5-amino-[1,3,4]oxadiazol-2-yl)-4-fluoro-1-methyl-1H-benzoimidazol-5-yl]-(4-iodo-2-methyl-phenyl)-amine], the melting point lay in the range of 258 to 260 °C.

In the case of `Cn1cnc2c(F)c(Nc3ccc(I)cc3F)c(C(N)=O)cc21` [Example 2], the melting point was 265 to 268 °C (dec.).

The record behind these values is US7160915B2, “N-methyl-substituted benzamidazoles” (Warner-Lambert Company, LLC, priority 2003, dated 2007).
